Assays:
Type in all cases: in vivo
[1] = test system: Western Flower thrips (Frankliniella occidentalis); assay: Insecticidal test on western flower thrips, kidney bean leaf pieces; conditions: 96 h, 4 days after treatment, read-out: insecticidal efficacy (corrected mortality rate) against western flower thrips
Excerpt: Insecticidal Test on Western Flower thrips (Frankliniella occidentalis)
Female adults of western flower thrips were inoculated onto kidney bean leaf pieces, and allowed to lay eggs thereon for one day, then the female adults were removed. After 3 days, the hatched larvae on the leaf pieces were counted, and then the agrochemical dispersions diluted to 50 ppm or 500 ppm, each of which contained the compound described in Tables 1 to 4 as an active ingredient were applied. The number of larvae of the species surviving at 4 days after the treatment was counted, and the corrected mortality rate was calculated according to the formula shown below, and the insecticidal efficacy was evaluated according to the criteria of Test Example 1. This test was conducted in duplicate. Corrected mortality rate (%)=(Survival rate in a non-treatment plot−Survival rate in a treatment plot)/(Survival rate in a non-treatment plot)×100 [Expression 3]

[2] = test system: Diamondback moth (Plutella xylostella); assay: Insecticidal test on diamondback moth, dip treatment of Chinese cabbage seedlings with laid eggs; conditions: 144 h, 6 days after treatment, read-out: insecticidal efficacy (corrected mortality rate) against diamondback moth
Excerpt: Insecticidal Test on Diamondback moth (Plutella xylostella)
Adults of diamondback moth were released onto Chinese cabbage seedlings and allowed to lay eggs thereon. At 2 days after the release of the adults, the Chinese cabbage seedlings with laid eggs were dipped for about 30 seconds in agrochemical dispersions diluted to 50 ppm or 500 ppm, each of which contained a different compound represented by the general formula (1) of the present invention as an active ingredient. After air-dried, the seedlings were kept in a thermostatic chamber at 25° C. At 6 days after the dip treatment, the number of surviving larvae per plot was counted, the corrected mortality rate was calculated according to the formula shown below, and the insecticidal efficacy was evaluated according to the criteria shown below. This test was conducted in triplicate using 10 adults of diamondback moth per plot. Corrected mortality rate (%)=(Survival rate in a non-treatment plot−Survival rate in a treatment plot)/(Survival rate in a non-treatment plot)×100 [Expression 1] Criteria: • A: the mortality rate is 100%. • B: the mortality rate is 90 to 99%. • C: the mortality rate is 80 to 89%. • D: the mortality rate is 50 to 79%. • E: the mortality rate is 0 to 49%.

[3] = test system: Small Brown Planthopper (Laodelphax striatellus); assay: Insecticidal test on small brown planthopper, dip treatment of rice seedlings; conditions: 192 h, rice seedling dip, 8 days after inoculation, read-out: insecticidal efficacy (corrected mortality rate) against small brown planthopper
Excerpt: Insecticidal Test on Small Brown Planthopper (Laodelphax striatellus)
The compounds represented by the general formula (1) of the present invention or salts thereof were separately dispersed in water and diluted to 50 ppm or 500 ppm. Rice plant seedlings (variety: Nihonbare) were dipped in the agrochemical dispersions for 30 seconds. After air-dried, each seedling was put into a separate glass test tube and inoculated with ten 3rd-instar larvae of small brown planthopper, and then the glass test tubes were capped with cotton plugs. At 8 days after the inoculation, the numbers of surviving larvae and dead larvae were counted, the corrected mortality rate was calculated according to the formula shown below, and the insecticidal efficacy was evaluated according to the criteria of Test Example 1. Corrected mortality rate (%)=(Survival rate in a non-treatment plot−Survival rate in a treatment plot)/(Survival rate in a non-treatment plot)×100 [Expression 2]

CSC(Nc1ccc(F)cc1)=C1C(=O)CN(c2ccc(C#N)nc2)N(C(=O)C2CC2)C1=O [Compound No. 1-44, (4EZ)-5-(2-(cyclopropanecarbonyl)-4-(((4-fluorophenyl)amino)(methylthio)methylene)-3,5-dioxo-tetrahydropyridazin-1(2H)-yl)picolinonitrile]
100%: mortality at 50 ppm [1] | mortality at 500 ppm [1] | mortality at 500 ppm [2] | mortality at 50 ppm [3] | mortality at 500 ppm [3]

CSC(Nc1ccc(F)cc1)=C1C(=O)CN(c2ccc(C(F)(F)F)nc2)N(C(=O)OC(C)(C)C)C1=O [Compound No. 1-63, tert-butyl (5EZ)-5-(((4-fluorophenyl)amino)(methylthio)methylene)-4,6-dioxo-2-[6-(trifluoromethyl)pyridin-3-yl]-tetrahydropyridazine-1(2H)-carboxylate]
100%: mortality at 50 ppm [1] | mortality at 500 ppm [1] | mortality at 50 ppm ([2]; 50 ppm) | mortality at 500 ppm [2] | mortality at 50 ppm [3] | mortality at 500 ppm [3]

CCCNC(=O)N1C(=O)C(=C(Nc2ccc(F)cc2)SC)C(=O)CN1c1ccc(C#N)nc1 [Compound No. 1-182, (5EZ)-2-(6-cyanopyridin-3-yl)-5-(((4-fluorophenyl)amino)(methylthio)methylene)-4,6-dioxo-N-propyl-tetrahydropyridazine-1(2H)-carboxamide]
100%: mortality at 50 ppm [3] | mortality at 500 ppm [3]

CSC(Nc1ccc(F)cc1)=C1C(=O)CN(c2ccc(C#N)nc2)N(C)C1=O [Compound No. 1-197, (4EZ)-5-(4-(((4-fluorophenyl)amino)(methylthio)methylene)-2-methyl-3,5-dioxo-tetrahydropyridazin-1(2H)-yl)picolinonitrile]
100%: mortality at 50 ppm [1] | mortality at 500 ppm [1] | mortality at 50 ppm [3] | mortality at 500 ppm [3]

Reference: patent publication US12698269B2, “1-aryltetrahydropyridazine-3,5-dione derivative or salt thereof and insecticidal agent containing the compound and method for using same” (NIHON NOHYAKU CO., LTD., priority 2022, dated 2026)
